Reference: patent US20130130986A1, “CANCER TREATMENT WITH RECOMBINANT VECTOR” (TOCAGEN INC., priority 2010, published 2013)
No end group written: not given here.

B1: yCD2: human codon optimized yeast cytosine deaminase with substitutions A23L/V108I/I140L (protein, UniProt Q12178 1-158, looked up, variant A23L V108I I140L)
Cytosine deaminase: MVTGGMASKWDQKGMDIAYEEALLGYKEGGVPIGGCLINNKDGSVLGRGHNMRFQKGSATLHGEISTLENCGRLEGKVYKDTTLYTTLSPCDMCTGAIIMYGIPRCVIGENVNFKSKGEKYLQTRGHEVVVVDDERCKKLMKQFIDERPQDWFEDIGE

Assays:
[1] = test system: Tu2449; assay: Thymosin combination therapy in Tu2449/B6C3F1 glioma mouse model, survival; assay type: in vivo; details: TA1 200 μg/kg IP SID 28 days added to suboptimal Toca511 (E3) and standard BID 5-FC, FIG. 10
Procedure: Experiments using Thymosin Alpha 1 were performed in conjunction with Toca 511 treatment in the Tu2449/B6C3F1 glioma mouse model (U. Pohle et al. Int J Oncol. 15:829-834 (1999); HM. Smilowitz et al. J. Neurosurg 106:652-659 2007). […] Thymosin Alpha 1 was obtained from Sigma Aldrich cat# T3641 and a stock solution made in sterile water at 400 μg/mL. TA1 (200 μg/kg, […]) was given IP starting on day 7 SID for 28 days.

[2] = test system: U-87 cells; assay: yCD2 versus wild type yCD protein level in infected cells (FIG. 4); assay type: cell-based, human; details: infected U-87 cells

Row | Molecule | survival rate [1] | CD protein level [2]
1 | thymosin alpha 1 (Ac-SDAAVDTSSEITTKDLKEKKEVVEEAEN; listed as Homo sapiens) [Sigma Aldrich cat# T3641] | increased the survival rate to that of the optimal E5 dosing of Toca 511 | 
2 | B1 |  | higher levels
